Patent US20240247235A1, “niPSCs DERIVED FROM SOMATIC CELLS” (UNIVERSITA' DEGLI STUDI DI PADOVA, priority 2018, published 2024)

Assays:
Human fibroblasts = assay: mmRNA (OSKMN) reprogramming of fibroblasts to naïve-like iPSC colonies in microfluidics; type: cell-based
Experimental: Microfluidic channels were coated with 25 μg/ml fibronectin (Sigma Aldrich) for 30 min at room temperature. Somatic cells were seeded on day −1 of reprogramming at 25 cells/mm^2 for feeder-free reprogramming in DMEM/10% FBS. Such seeding density allowed robust proliferation and survival of somatic cells during reprogramming. On day 0, 2 hours before the first mmRNA transfection, the medium was changed to PRM, a medium optimized from mRNA transfection and previously used for derivation of primed PSCs (StemMACS ReproBREW XF, Miltenyi biotec). When indicated, 1 μM CH, 1 μM CH and 5 μM Ri were added to PRM. Transfection period is of 9 h. Cells were transfected daily at 9 am, and fresh PRM was given daily at 6 pm. On day 6, medium was changed with a naïve supporting medium according to table 1 and the same regime of transfection and fresh medium change was maintained until day 12. From day 0 to 12, media were supplemented with 200 ng/mL^−1 B18R (eBioscience). Transfections using a OSKMN+nGFP mmRNA mix (POU5F1, SOX2, KLF4, c-MYC, NANOG, nuclear GFP) were started on day 0 and daily repeated for 12 d. […]
Freshly-derived colonies were then cultured for 3 days without mmRNAs (day 15) to allow their complete clearance, and analyzed in situ for naïve or primed associated markers. […] Success rate, measured as the percentage of microfluidic channels containing naïve-like colonies, was evaluated (FIG. 3c). […]

primed iPS cells = assay: Expansion of mixed primed- and naïve-like colonies generated in CCC with FGF receptor inhibitor; type: cell-based, human; conditions: expanded with inhibitor
Experimental: Side-by-side experiments comparing μF and CCC were performed. Generation of niPSCs in μF was robust (100% of channels contained colonies, with an efficiency of 3.7%+1.0 and 3.1%+0.4 from BJ and HFF-1, respectively, FIG. 9a). Conversely, in CCC only 25% of wells contained naïve-like colonies, with efficiency of 0.2% and 0.04%.

Q: Which “Formed naïve-like colonies, inhibitor added to PRM during the first 6 days” value (Human fibroblasts; PRM + 1 μM CHIR99021 days 0-6, then 2LiGo+KSR, compared with other inhibitor combinations (FIG. 3b)) does the source give for `Cc1c[nH]c(-c2cnc(NCCNc3ccc(C#N)cn3)nc2-c2ccc(Cl)cc2Cl)n1` [CH, CHIR99021] here?
A: Best results in term of formed colonies

Q: With `CCN(CC)CCCCNc1ncc2cc(-c3cc(OC)cc(OC)c3)c(NC(=O)NC(C)(C)C)nc2n1` [PD173074] as the compound, how does the “Effect on primed iPS cells in mixed primed/naïve culture” value (primed iPS cells) read?
A: primed iPS cells were eliminated

Q: For `C[C@@H](N)[C@H]1CC[C@H](C(=O)Nc2ccncc2)CC1` [ROCK inhibitor, Y27632], which “Effect on colony formation efficiency” value (Human fibroblasts; added to reprogramming in 2iLGo+KSR, OSKMN mmRNA, microfluidics (FIG. 3c-e)) is on record?
A: increased colony formation efficiency
